Laboratory results: paper PMC5744665 (Journal of medicinal chemistry, 2015)

Legend:
PDC-3 = PDC-3 (Pseudomonas aeruginosa, UniProt P24735, T105A); type: biochemical
[1] = system: E.coli DH10B pBCSK- PDC-3; test: MIC by agar dilution, cefotaxime alone or with boronate, strain producing PDC-3; type: cell-based; settings: E. coli possessing the P. aeruginosa AmpC; BATSI added to cefotaxime
E.coli DH10B = test: microbe, parasite or virus in culture; type: cell-based; settings: Escherichia coli
[2] = system: O=C(Cc1cccs1)N[C@@H]1C(=O)N2C(C(=O)O)=C(/C=C/c3ccc([N+](=O)[O-])cc3[N+](=O)[O-])CS[C@H]12; test: purified protein, by the assay type; settings: other: substrate; used to correct Ki; pH 7.4

## O=C(Cc1cccs1)N[C@@H](Cn1cc(C(=O)O)nn1)B(O)O [Compound 13a, (1R)-2-(4-Carboxy-[1,2,3]triazol-1-yl)-1-(2-thienylacetylamino)ethaneboronic acid]
PDC-3; 13a compared with 13f, from Ki vs PDC-3, ΔΔGbind = −RTln Ki ref/Ki
  energetic contribution to binding of the carboxylate (ΔΔGbind): 2.2 kcal/mol
PDC-3; 13a compared with Reference compound B
  improvement in recognition caused by ring hopping (ΔΔG): 0.7 kcal/mol
[1]
  reduction in MIC of cefotaxime: five dilution (2 log) reduction

## O=C(Cc1cccs1)N[C@@H](Cn1ccnn1)B(O)O [Compound 13f, (1R)-2-([1,2,3]triazol-1-yl)-1-(2-thienylacetylamino)ethaneboronic acid]
PDC-3; 13f compared with Ref Compound A, from Ki vs PDC-3
  contribution of the methyltriazole to binding (ΔΔG): 0.5 kcal/mol

## CO/N=C(\C(=O)N[C@@H]1C(=O)N2C(C(=O)O)=C(COC(C)=O)CS[C@H]12)c1csc(N)n1 [TAX, cefotaxime]
E.coli DH10B
  MIC: < 0.125 µg/mL

## O=C(Cc1cccs1)N[C@@H]1C(=O)N2C(C(=O)O)=C(/C=C/c3ccc([N+](=O)[O-])cc3[N+](=O)[O-])CS[C@H]12 [nitrocefin, reference compound]
PDC-3; read-out: Km of nitrocefin, PDC-3, substrate, used to correct Ki
  Km: 14.6 ± 2.2 µM

## P99 (Enterobacter cloacae)
[2]
  Km: 20.03 ± 2.05 µM
